Target: T1, human PF4 (Homo sapiens, UniProt P02776)
T1 construct: PF4 is a 70 amino acid, lysine-rich 7.8 kDa platelet-specific protein; made in house; host or cells: Escherichia coli BL21DE3 pLysS (pT7-7) and/or Drosophila S2 cells
T1 sequence (P02776 32-101): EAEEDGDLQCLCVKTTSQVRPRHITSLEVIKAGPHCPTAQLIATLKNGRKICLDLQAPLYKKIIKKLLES
Assay: Inhibition of PF4 tetramer formation (BS3 cross-linking, SDS-PAGE)
Assay type: biochemical
Conditions: for inhibition at 10 µM: 10 μM inhibitor (column A); for IC50: read-out: IC50 of PF4 tetramer formation inhibition; for inhibition at 5 µM: 5 μM inhibitor
Summary of the method: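 Monomer, dimer, trimer and tetramer fractions were quantified by densitometry after reducing 12% SDS-PAGE of BS3-cross-linked (0.2 mM, 30 min, room temperature) PF4. Before cross-linking, 10 μg/ml E. coli-expressed human WT PF4 in PBS was exposed to compound for 15 min at 37° C or 60 min at room temperature; controls lacked compound.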

[1] = read-out: % inhibition of PF4 tetramer formation at single concentration of inhibitor
[2] = 1 μM inhibitor, read-out: % inhibition of PF4 tetramer formation at single concentration of inhibitor
[3] = 3 μM inhibitor (column A), read-out: % inhibition of PF4 tetramer formation at single concentration of inhibitor

inhibition at 10 µM [1] [%] | IC50 [µM] | inhibition at 1 µM [2] [%] | inhibition at 3 µM [3] [%] | SMILES | other results
81 | 10 | – | – | CSCCCC(=O)C1C(=O)c2ccc(C(=O)c3ccc4c(c3)C(=O)C(C(=O)CCCSC)C4=O)cc2C1=O (stereo not drawn) [Example 284, 2-[4-(methylsulfanyl)butanoyl]-5-{2-[4-(methylsulfanyl)butanoyl]-1,3-dioxo-2,3-dihydro-1H-indene-5-carbonyl}-2,3-dihydro-1H-indene-1,3-dione] | –
– | 20 | – | – | CCOC(=O)NC(=O)C1C(=O)c2ccc(C(=O)c3ccc4c(c3)C(=O)C(C(=O)NC(=O)OCC)C4=O)cc2C1=O (stereo not drawn) [Example 16, 5,5′-carbonylbis((1,3-dioxo-indane-2-carbonyl)-carbamic acid ethyl ester)] | inhibition at 30 µM (30 μM inhibitor, read-out: % inhibition of PF4 tetramer formation at single concentration of inhibitor): 78%
– | – | 25 | 35 | CCNC(=O)C1C(=O)c2ccc(S(=O)(=O)c3ccc4c(c3)C(=O)C(C(=O)NCC)C4=O)cc2C1=O (stereo not drawn) [Example 336, N-ethyl-5-{[2-(ethylcarbamoyl)-1,3-dioxo-2,3-dihydro-1H-inden-5-yl]sulfonyl}-1,3-dioxo-2,3-dihydro-1H-indene-2-carboxamide] | –
– | – | 16 | 26 | O=C(c1ccc2c(c1)C(=O)C(C(=S)NC1CC1)C2=O)c1ccc2c(c1)C(=O)C(C(=S)NC1CC1)C2=O (stereo not drawn) [Example 328, N-cyclopropyl-5-[2-(cyclopropylcarbamothioyl)-1,3-dioxo-2,3-dihydro-1H-indene-5-carbonyl]-1,3-dioxo-2,3-dihydro-1H-indene-2-carbothioamide] | –
59 | – | – | – | O=C1c2ccc(S(=O)(=O)c3ccc4c(c3)C(=O)C(C(=O)C3CCOC3)C4=O)cc2C(=O)C1C(=O)C1CCOC1 (stereo not drawn) [Example 147, 5-{[1,3-dioxo-2-(oxolane-3-carbonyl)-2,3-dihydro-1H-inden-5-yl]sulfonyl}-2-(oxolane-3-carbonyl)-2,3-dihydro-1H-indene-1,3-dione] | inhibition at 5 µM [1]: 55%
93 | 1.2 | – | – | O=C(c1ccc2c(c1)C(=O)C(C(=O)[C@@H]1CCCN1C(=O)OCc1ccccc1)C2=O)c1ccc2c(c1)C(=O)C(C(=O)[C@@H]1CCCN1C(=O)OCc1ccccc1)C2=O (stereo partly drawn) [Example 125, benzyl (2S)-2-(5-{2-[(2S)-1-[(benzyloxy)carbonyl]pyrrolidine-2-carbonyl]-1,3-dioxo-2,3-dihydro-1H-indene-5-carbonyl}-1,3-dioxo-2,3-dihydro-1H-indene-2-carbonyl)pyrrolidine-1-carboxylate] | inhibition at 5 µM [1]: 87%
88 | 3.8 | – | – | CC1(C)O[C@H]2O[C@@H](/C(O)=C3\C(=O)c4ccc(C(=O)c5ccc6c(c5)C(=O)/C(=C(\O)[C@@H]5O[C@@H]7OC(C)(C)O[C@@H]7[C@H]7OC(C)(C)O[C@@H]75)C6=O)cc4C3=O)[C@H]3OC(C)(C)O[C@@H]3[C@H]2O1 [Example 135, 5-{1,3-dioxo-2-[(1S,2R,6R,8R,9S)-4,4,11,11-tetramethyl-3,5,7,10,12-pentaoxatricyclo[7.3.0.0^2,^6]dodecane-8-carbonyl]-2,3-dihydro-1H-indene-5-carbonyl}-2-[(1S,2R,6R,8R,9S)-4,4,11,11-tetramethyl-3,5,7,10,12-pentaoxatricyclo[7.3.0.0^2,^6]dodecane-8-carbonyl]-2,3-dihydro-1H-indene-1,3-dione] | inhibition at 5 µM [1]: 79%
60 | – | – | – | O=C(O)CCNC(=O)C1C(=O)c2ccc(S(=O)(=O)c3ccc4c(c3)C(=O)C(C(=O)NCCC(=O)O)C4=O)cc2C1=O (stereo not drawn) [Example 303, 3-{[5-({2-[(2-carboxyethyl)carbamoyl]-1,3-dioxo-2,3-dihydro-1H-inden-5-yl}sulfonyl)-1,3-dioxo-2,3-dihydro-1H-inden-2-yl]formamido}propanoic acid] | –
– | – | 18 | 42 | O=C(CCC(=O)C1C(=O)c2ccc(S(=O)(=O)c3ccc4c(c3)C(=O)C(C(=O)CCC(=O)c3cccc(Cl)c3Cl)C4=O)cc2C1=O)c1cccc(Cl)c1Cl (stereo not drawn) [Example 255, 2-[4-(2,3-dichlorophenyl)-4-oxobutanoyl]-5-({2-[4-(2,3-dichlorophenyl)-4-oxobutanoyl]-1,3-dioxo-2,3-dihydro-1H-inden-5-yl}sulfonyl)-2,3-dihydro-1H-indene-1,3-dione] | % inhibition of PF4 tetramer formation at single concentration of inhibitor (1 μM inhibitor, 1 µM): 9%; % inhibition of PF4 tetramer formation at single concentration of inhibitor (3 μM inhibitor (column A), 3 µM): 51%
– | – | 33 | 53 | O=C(NCC1CCOC1)C1C(=O)c2ccc(S(=O)(=O)c3ccc4c(c3)C(=O)C(C(=O)NCC3CCOC3)C4=O)cc2C1=O (stereo not drawn) [Example 362, 5-[(1,3-dioxo-2-{[(oxolan-3-yl)methyl]carbamoyl}-2,3-dihydro-1H-inden-5-yl)sulfonyl]-1,3-dioxo-N-[(oxolan-3-yl)methyl]-2,3-dihydro-1H-indene-2-carboxamide] | –
– | 2.9 | – | – | O=C(NC1CCCC1)C1C(=O)c2ccc(Oc3ccc4c(c3)C(=O)C(C(=O)NC3CCCC3)C4=O)cc2C1=O (stereo not drawn) [Example 107, N-cyclopentyl-5-{[2-(cyclopentylcarbamoyl)-1,3-dioxo-2,3-dihydro-1H-inden-5-yl]oxy}-1,3-dioxo-2,3-dihydro-1H-indene-2-carboxamide] | –
94 | 3.4 | – | – | N[C@H](C(=O)C1C(=O)c2ccc(C(=O)c3ccc4c(c3)C(=O)C(C(=O)[C@@H](N)C3CC3)C4=O)cc2C1=O)C1CC1 (stereo partly drawn) [Example 118, 2-[(2S)-2-amino-2-cyclopropylacetyl]-5-{2-[(2S)-2-amino-2-cyclopropylacetyl]-1,3-dioxo-2,3-dihydro-1H-indene-5-carbonyl}-2,3-dihydro-1H-indene-1,3-dione] | inhibition at 5 µM [1]: 75%
– | 0.29 | 20 | 70 | COCCOCCC(=O)C1C(=O)c2ccc(C(=O)c3ccc4c(c3)C(=O)C(C(=O)CCOCCOC)C4=O)cc2C1=O (stereo not drawn) [Example 382, 2-[3-(2-methoxyethoxy)propanoyl]-5-{2-[3-(2-methoxyethoxy)propanoyl]-1,3-dioxo-2,3-dihydro-1H-indene-5-carbonyl}-2,3-dihydro-1H-indene-1,3-dione] | –
– | – | 23 | 31 | COCCOCCOCCNC(=O)C1C(=O)c2ccc(C(=O)c3ccc4c(c3)C(=O)C(C(=O)NCCOCCOCCOC)C4=O)cc2C1=O (stereo not drawn) [Example 388, N-{2-[2-(2-methoxyethoxy)ethoxy]ethyl}-5-[2-({2-[2-(2-methoxyethoxy)ethoxy]ethyl}carbamoyl)-1,3-dioxo-2,3-dihydro-1H-indene-5-carbonyl]-1,3-dioxo-2,3-dihydro-1H-indene-2-carboxamide] | –
– | 21 | – | – | COCCCNC(=O)C1C(=O)c2ccc(C(=O)c3ccc4c(c3)C(=O)C(C(=O)NCCCOC)C4=O)cc2C1=O (stereo not drawn) [Example 88, N-(3-methoxypropyl)-5-{2-[(3-methoxypropyl)carbamoyl]-1,3-dioxo-2,3-dihydro-1H-indene-5-carbonyl}-1,3-dioxo-2,3-dihydro-1H-indene-2-carboxamide] | –
– | – | 23 | 39 | CCNC(=O)C1C(=O)c2ccc(C(=O)c3ccc4c(c3)C(=O)C(C(=O)NCC)C4=O)cc2C1=O (stereo not drawn) [Example 335, N-ethyl-5-[2-(ethylcarbamoyl)-1,3-dioxo-2,3-dihydro-1H-indene-5-carbonyl]-1,3-dioxo-2,3-dihydro-1H-indene-2-carboxamide] | –

SMILES | inhibition at 10 µM [1] [%] | IC50 [µM] | inhibition at 1 µM [2] [%] | inhibition at 3 µM [3] [%] | other results
COCCOCCC(=O)C1C(=O)c2ccc(Oc3ccc4c(c3)C(=O)C(C(=O)CCOCCOC)C4=O)cc2C1=O (stereo not drawn) [Example 383, 2-[3-(2-methoxyethoxy)propanoyl]-5-({2-[3-(2-methoxyethoxy)propanoyl]-1,3-dioxo-2,3-dihydro-1H-inden-5-yl}oxy)-2,3-dihydro-1H-indene-1,3-dione] | – | – | 20 | 45 | –
O=C1c2ccc(Oc3ccc4c(c3)C(=O)C(C(=O)C3CCCC3)C4=O)cc2C(=O)C1C(=O)C1CCCC1 (stereo not drawn) [Example 251, 2-cyclopentanecarbonyl-5-[(2-cyclopentanecarbonyl-1,3-dioxo-2,3-dihydro-1H-inden-5-yl)oxy]-2,3-dihydro-1H-indene-1,3-dione] | – | 3 | 32 | 45 | –
CC(C)(C)OC(=O)N1CCSC1C(=O)C1C(=O)c2ccc(C(=O)c3ccc4c(c3)C(=O)C(C(=O)C3SCCN3C(=O)OC(C)(C)C)C4=O)cc2C1=O (stereo not drawn) [Example 124, tert-butyl 2-[5-(2-{3-[(tert-butoxy)carbonyl]-1,3-thiazolidine-2-carbonyl}-1,3-dioxo-2,3-dihydro-1H-indene-5-carbonyl)-1,3-dioxo-2,3-dihydro-1H-indene-2-carbonyl]-1,3-thiazolidine-3-carboxylate] | – | 6.3 | – | – | –
CC(C)(C)OC(=O)N1CC[C@H](C(=O)C2C(=O)c3ccc(C(=O)c4ccc5c(c4)C(=O)C(C(=O)[C@H]4CCN(C(=O)OC(C)(C)C)C4)C5=O)cc3C2=O)C1 (stereo partly drawn) [Example 373, tert-butyl (3S)-3-(5-{2-[(3S)-1-[(tert-butoxy)carbonyl]pyrrolidine-3-carbonyl]-1,3-dioxo-2,3-dihydro-1H-indene-5-carbonyl}-1,3-dioxo-2,3-dihydro-1H-indene-2-carbonyl)pyrrolidine-1-carboxylate] | – | – | 5 | 3 | –
CC(C)CCCC(=O)C1C(=O)c2ccc(S(=O)(=O)c3ccc4c(c3)C(=O)C(C(=O)CCCC(C)C)C4=O)cc2C1=O (stereo not drawn) [Example 171, 2-(5-methylhexanoyl)-5-{[2-(5-methylhexanoyl)-1,3-dioxo-2,3-dihydro-1H-inden-5-yl]sulfonyl}-2,3-dihydro-1H-indene-1,3-dione] | 75 | – | – | – | inhibition at 5 µM [1]: 62%

From patent US20250281424A1 (New York Blood Center, Inc, priority 2020, published 2025)
